What was measured:
Venturia inaequalis = experiment: Example D: Venturia test (apple)/protective; type: in vivo; details: protective, 100 ppm, evaluation 10 days after inoculation
Protocol: Solvent: 24.5 parts by weight of acetone • 24.5 parts by weight of dimethylacetamide Emulsifier: 1 part by weight of alkylaryl polyglycol ether To produce a suitable preparation of active compound, 1 part by weight of active compound is mixed with the stated amounts of solvent and emulsifier, and the concentrate is diluted with water to the desired concentration. To test for protective activity, young plants are sprayed with the preparation of active compound at the stated application rate. […] The plants are then placed in a greenhouse at about 21° C. and a relative atmospheric humidity of about 90%.

Puccinia triticina = experiment: Example L: Puccinia triticina test (wheat)/protective; type: in vivo; details: protective, 500 ppm, evaluation 8 days after inoculation
Protocol: (§1) Solvent: 49 parts by weight of N,N-dimethylacetamide Emulsifier: 1 part by weight of alkylaryl polyglycol ether To produce a suitable preparation of active compound, 1 part by weight of active compound is mixed with the stated amounts of solvent and emulsifier, and the concentrate is diluted with water to the desired concentration. To test for protective activity, young plants are sprayed with the preparation of active compound at the stated application rate. After the spray coating has dried on, the plants are sprayed with spores with a spore suspension of Puccinia triticina.

[1] = log P by HPLC on reversed-phase columns (EEC directive 79/831 Annex V.A8); type: physicochemical
Protocol: The log P values were measured according to EEC directive 79/831 Annex V.A8 by HPLC (High Performance Liquid Chromatography) on reversed-phase columns, using the methods below: […] Calibration was carried out using unbranched alkan-2-ones (having from 3 to 16 carbon atoms) with known log P values (the log P values were determined by the retention times using linear interpolation between two successive alkanones). The lambda maX values were determined in the maxima of the chromatographic signals using the UV spectra from 200 nm to 400 nm.

Phytophthora infestans = type: in vivo; details: tomato, preventative, 500 ppm, evaluation 5 days after inoculation
Fusarium graminearum = type: in vivo; details: barley (heading), protective, 500 ppm, evaluation 5 days after inoculation
Pyricularia oryzae = type: in vivo; details: rice, preventative, 500 ppm, evaluation 6 days after inoculation
[2] = tested on: Blumeria graminis f.sp. hordei; experiment: Example G: Blumeria graminis test (barley)/protective; type: in vivo; details: protective, 500 ppm, evaluation 7 days after inoculation
Protocol: Solvent: 49 parts by weight of N,N-dimethylacetamide Emulsifier: 1 part by weight of alkylaryl polyglycol ether To produce a suitable preparation of active compound, 1 part by weight of active compound is mixed with the stated amounts of solvent and emulsifier, and the concentrate is diluted with water to the desired concentration. To test for protective activity, young plants are sprayed with the preparation of active compound at the stated application rate. After the spray coating has dried on, the plants are dusted with spores of Blumeria graminis f.sp. hordei.

[3] = tested on: Fusarium nivale (var. majus); experiment: Example M: Fusarium nivale (var. majus) test (wheat)/protective; type: in vivo; details: protective, 500 ppm, evaluation 5 days after inoculation
Protocol: as §1, with “with” for “with spores with”, “Fusarium nivale (var. majus).” for “Puccinia triticina.”

Phakopsora pachyrhizi = experiment: Example F: Phakopsora test (soya beans)/protective; type: in vivo; details: protective, 100 ppm, evaluation 7 days after inoculation
Protocol: Solvents: 24.5 parts by weight of acetone • 24.5 parts by weight of dimethylacetamide Emulsifier: 1 part by weight of alkylaryl polyglycol ether To produce a suitable preparation of active compound, 1 part by weight of active compound is mixed with the stated amounts of solvent and emulsifier, and the concentrate is diluted with water to the desired concentration. To test for protective activity, young plants are sprayed with the preparation of active compound at the stated application rate.

Sphaerotheca fuliginea = experiment: Example B: Sphaerotheca test (cucumber)/protective; type: in vivo; details: protective, 500 ppm, evaluation 7 days after inoculation
Protocol: Solvent: 49 parts by weight of N,N-dimethylformamide Emulsifier: 1 part by weight of alkylaryl polyglycol ether To produce a suitable preparation of active compound, 1 part by weight of active compound is mixed with the stated amounts of solvent and emulsifier, and the concentrate is diluted with water to the desired concentration. To test for protective activity, young cucumber plants are sprayed with the preparation of active compound at the stated application rate. 1 day after the treatment, the plants are inoculated with a spore suspension of Sphaerotheca fuliginea. The plants are then placed in a greenhouse at 70% relative air humidity and a temperature of 23° C.

Pyrenophora teres [4] = experiment: Example R: preventative in vivo test with Pyrenophora teres (net blotch on barley); details: 500 ppm, evaluation 12 days after inoculation
Protocol: The active compounds tested are prepared by homogenization in a mixture of acetone/Tween/DMSO and then diluted with water to the desired active compound concentration. Barley plants (cultivar “Plaisant”), sown in a 50/50 peat/pozzolana soil substrate and cultivated at 22° C. (12 h)/20° C. (12 h), are treated at the 1-leaf stage (height 10 cm) by spraying with the active compound, prepared as above. As a control, plants are treated with the mixture of acetone/Tween/DMSO/water without the active compound. After 24 hours, the plants are inoculated by spraying the leaves with an aqueous suspension of Pyrenophora teres spores.

Puccinia recondita = experiment: Example T: preventative in vivo test with Puccinia recondita (brown rust on wheat); details: 500 ppm, evaluation 10 days after inoculation
Protocol: The active compounds tested are prepared by homogenization in a mixture of acetone/Tween/DMSO and then diluted with water to the desired active compound concentration. Wheat plants (cultivar “Scipion”), sown in a 50/50 peat/pozzolana soil substrate and cultivated at 22° C. (12 h)/20° C. (12 h), are treated at the 1-leaf stage (height 10 cm) by spraying with the active compound, prepared as above. As a control, plants are treated with the mixture of acetone/Tween/DMSO/water without the active compound. After 24 hours, the plants are inoculated by spraying the leaves with an aqueous suspension of Puccinia recondita spores.

Pyrenophora teres [5] = experiment: Example K: Pyrenophora teres test (barley)/protective; type: in vivo; details: protective, 500 ppm, evaluation 8 days after inoculation
Protocol: as §1, with “with” for “with spores with”, “Pyrenophora teres.” for “Puccinia triticina.”

OC(Cc1ccccc1Cl)(Cn1ccnc1I)C1(Cl)CC1 (centres unmarked) [Example 1, 2-(1-chlorocyclopropyl)-1-(2-chlorophenyl)-3-(2-iodo-1H-imidazol-1-yl)propan-2-ol]
Eff. % (Venturia inaequalis): 100%
Eff. % (Puccinia triticina): 100%
chromatographic logP ([1]; pH 2.7, logP): 2.35
chromatographic logP ([1]; pH 7.8, logP): 3.38
Efficacy % (Phytophthora infestans): 100%
Eff. % (Fusarium graminearum): 100%
Efficacy % (Pyricularia oryzae): 100%
Eff. % [2]: 100%
Eff. % [3]: 100%
Eff. % (Phakopsora pachyrhizi): 98%
Eff. % (Sphaerotheca fuliginea): 80%
Efficacy % (Pyrenophora teres [4]): 100%
Efficacy % (Puccinia recondita): 100%
Eff. % (Pyrenophora teres [5]): 100%
